The values below come from US12454529B2, “Piperazine cyclic ureas” (SIRONAX LTD., priority 2020, dated 2025).

The experiment relates to HT-29 cells. The experiment is described as follows: HT-29 cell necrosis/necroptosis inhibition (TNF-α + SMAC mimetic + zVAD-FMK; CellTiter-Glo cell viability). The class given is cell-based. The conditions noted are these: Homo sapiens. In a few lines: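 HT-29 cells (~5,000/well) were switched to FBS-free McCOY's 5A holding TNF-α (10 ng/ml), SMAC mimetic (6 μM) and zVAD-FMK (10 μM), then dosed with a 10-point 1:3 series for 20 h at 37 °C. CellTiter-Glo luminescence gave viability; geometric mean EC50 from duplicates.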
A general note: ATP-based viability assays read luminescence as a measure of living cells.

The mark [1] stands for this setting: HT-29 cells, TNF-α 10 ng/ml + SMAC mimetic 6 μM + zVAD-FMK 10 μM, 20 hours, geometric mean, 10 points in duplicate, read-out: EC50 (Cell activity; Necrosis/Necroptosis Inhibitory Activity, Compounds 1-142).
The mark [2] stands for this setting: HT-29 cells, TNF-α 10 ng/ml + SMAC mimetic 6 μM + zVAD-FMK 10 μM, 20 hours, geometric mean, 10 points in duplicate, read-out: EC50 (Cell activity; Necrosis/Necroptosis Inhibitory Activity, Compounds 143-323).
Setting [3] is: HT-29, 20 h, read-out: EC50 (Cell activity; Necrosis/Necroptosis Inhibitory Activity, Compounds 1-142).

pEC50: −log10 of the molar value. Read-outs that look alike come from different tables or passages of the source.

`NC(=O)c1c[nH]c(-c2ccnc(N3CCN(C(=O)N4N=CC[C@H]4c4cc(F)cc(F)c4)CC3)n2)c1` [Compound 10, (S)-5-(2-(4-(5-(3,5-difluorophenyl)-4,5-dihydro-1H-pyrazole-1-carbonyl)piperazin-1-yl)pyrimidin-4-yl)-1H-pyrrole-3-carboxamide]: the pEC50 under setting [1] was 7.00 to 10.00.
`Cc1nn(-c2ccnc(N3CCN(C(=O)N4N=CC[C@H]4c4cc(F)cc(C#N)c4)CC3)n2)c(C)c1Br` [Compound 273, (S)-3-(1-(4-(4-(4-bromo-3,5-dimethyl-1H-pyrazol-1-yl)pyrimidinyl)piperazine-1-carbonyl)-4,5-dihydro-1H-pyrazol-5-yl)-5-fluorobenzonitrile]: the pEC50 under setting [2] was 7.00 to 10.00.
Still for that read-out and setting: the value for `Cc1nnc(-c2nc(N3CCN(C(=O)N4N=CC[C@H]4c4cc(F)cc(F)c4)CC3)ncc2F)n1C` [Compound 178, (S)-(5-(3,5-difluorophenyl)-4,5-dihydro-1H-pyrazol-1-yl)(4-(4-(4,5-dimethyl-4H-1,2,4-triazol-3-yl)-5-fluoropyrimidin-2-yl)piperazin-1-yl)methanone] was 7.00 to 10.00; that for `Cc1nc(C)n(-c2nc(N3CCN(C(=O)N4N=CCC4c4ncc(C)s4)CC3)ncc2F)n1` (centres unmarked) [Compound 216, (4-(4-(3,5-dimethyl-1H-1,2,4-triazol-1-yl)-5-fluoropyrimidin-2-yl)piperazin-1-yl)(5-(5-methylthiazol-2-yl)-4,5-dihydro-1H-pyrazol-1-yl)methanone] was 7.00 to 10.00; that for `Cc1c(-c2nc(N3CCN(C(=O)N4N=CC[C@H]4c4cc(F)cc(C#N)c4)CC3)ncc2F)c(CO)nn1C` [Compound 165, (S)-3-fluoro-5-(1-(4-(5-fluoro-4-(3-(hydroxymethyl)-1,5-dimethyl-1H-pyrazol-4-yl)pyrimidin-2-yl)piperazine-1-carbonyl)-4,5-dihydro-1H-pyrazol-5-yl)benzonitrile] was 7.00 to 10.00.
Consider `Cn1ccc(-c2nc(N3CCN(C(=O)N4N=CC[C@H]4c4cc(F)cc(F)c4)CC3)ncc2F)n1` [Compound 27, (S)-(5-(3,5-difluorophenyl)-4,5-dihydro-1H-pyrazol-1-yl)(4-(5-fluoro-4-(1-methyl-1H-pyrazol-3-yl)pyrimidin-2-yl)piperazin-1-yl)methanone], for which the pEC50 under setting [1] is 7.00 to 10.00.
With `Cc1nn(-c2cc(N3CCN(C(=O)N4N=CC[C@H]4c4cc(F)cc(C#N)c4)CC3)ncn2)c(C)c1C(N)=O` [Compound 282, (S)-1-(6-(4-(5-(3-cyano-5-fluorophenyl)-4,5-dihydro-1H-pyrazole-1-carbonyl)piperazin-1-yl)pyrimidin-4-yl)-3,5-dimethyl-1H-pyrazole-4-carboxamide], the pEC50 under setting [2] is 7.00 to 10.00.
Still for that read-out and setting: for `Cn1nc(CO)nc1-c1nc(N2CCN(C(=O)N3N=CCC3c3cc(F)cc(F)c3)CC2)ncc1F` (centres unmarked) [Compound 227, (5-(3,5-difluorophenyl)-4,5-dihydro-1H-pyrazol-1-yl)(4-(5-fluoro-4-(3-(hydroxymethyl)-1-methyl-1H-1,2,4-triazol-5-yl)pyrimidin-2-yl)piperazin-1-yl)methanone] the value was 7.00 to 10.00.
For `NC(=O)c1cnn(-c2ccnc(N3CCN(C(=O)N4N=CC[C@H]4c4cccc(F)c4)CC3)n2)c1` [Compound 17, (S)-1-(2-(4-(5-(3-fluorophenyl)-4,5-dihydro-1H-pyrazole-1-carbonyl)piperazin-1-yl)pyrimidin-4-yl)-1H-pyrazole-4-carboxamide], the pEC50 under setting [1] was 7.00 to 10.00.
Regarding `Cn1nc(C(N)=O)nc1-c1nc(N2CCN(C(=O)N3N=CCC3c3cncc(F)c3)CC2)ncc1F` (centres unmarked) [Compound 226, 5-(5-fluoro-2-(4-(5-(5-fluoropyridin-3-yl)-4,5-dihydro-1H-pyrazole-1-carbonyl)piperazin-1-yl)pyrimidin-4-yl)-1-methyl-1H-1,2,4-triazole-3-carboxamide], the pEC50 under setting [2] was 7.00 to 10.00.
The same measure, in the same setting: the value for `Cc1nn(-c2ccnc(N3CCN(C(=O)N4N=CC[C@H]4c4cc(F)cc(C#N)c4)CC3)n2)c(C)c1Cl` [Compound 288, (S)-3-(1-(4-(4-(4-chloro-3,5-dimethyl-1H-pyrazol-1-yl)pyrimidin-2-yl)piperazine-1-carbonyl)-4,5-dihydro-1H-pyrazol-5-yl)-5-fluorobenzonitrile] was 7.00 to 10.00.
Consider `Cn1cnn(-c2nc(N3CCN(C(=O)N4N=CC[C@H]4c4cc(F)cc(C#N)c4)CC3)ncc2F)c1=O` [Compound 140, (S)-3-fluoro-5-(1-(4-(5-fluoro-4-(4-methyl-5-oxo-4,5-dihydro-1H-1,2,4-triazol-1-yl)pyrimidin-2-yl)piperazine-1-carbonyl)-4,5-dihydro-1H-pyrazol-5-yl)benzonitrile], for which the negative logarithm of the EC50 (pEC50) under setting [3] is 7.00 to 10.00.
Regarding `Cc1nc(CO)nn1-c1nc(N2CCN(C(=O)N3N=CC[C@H]3c3cncc(F)c3)CC2)ncc1F` [Compound 250, (S)-(4-(5-fluoro-4-(3-(hydroxymethyl)-5-methyl-1H-1,2,4-triazol-1-yl)pyrimidin-2-yl)piperazin-1-yl)(5-(5-fluoropyridin-3-yl)-4,5-dihydro-1H-pyrazol-1-yl)methanone], the negative logarithm of the EC50 (pEC50) under setting [2] was 7.00 to 10.00.
For `Cc1nnc(-c2nc(N3CCN(C(=O)N4N=CC[C@H]4c4cc(F)cc(C#N)c4)CC3)ccc2F)s1` [Compound 172, (S)-3-fluoro-5-(1-(4-(5-fluoro-6-(5-methyl-1,3,4-thiadiazol-2-yl)pyridin-2-yl)piperazine-1-carbonyl)-4,5-dihydro-1H-pyrazol-5-yl)benzonitrile], under setting [2], the pEC50 was 7.00 to 10.00.
On to `Cc1nn(C[C@@H]2CO2)c(C)c1-c1nc(N2CCN(C(=O)N3N=CC[C@H]3c3cc(F)cc(C#N)c3)CC2)ncc1F` [Compound 133, 3-((S)-1-(4-(4-(3,5-dimethyl-1-(((R)-oxiran-2-yl)methyl)-1H-pyrazol-4-yl)-5-fluoropyrimidin-2-yl)piperazine-1-carbonyl)-4,5-dihydro-1H-pyrazol-5-yl) fluorobenzonitrile], for which, under setting [3], the pEC50 is 7.00 to 10.00.
For the compound `Cc1cnc([C@@H]2CC=NN2C(=O)N2CCN(c3ncc(F)c(-c4ncnn4C)n3)CC2)s1` [Compound 318, (S)-(4-(5-fluoro-4-(1-methyl-1H-1,2,4-triazol-5-yl)pyrimidin-2-yl)piperazin-1-yl)(5-(5-methylthiazol-2-yl)-4,5-dihydro-1H-pyrazol-1-yl)methanone], the pEC50 under setting [2] is 7.00 to 10.00.
On to `O=C(N1CCN(c2nccc(-c3cc[nH]n3)n2)CC1)N1N=CC[C@H]1c1cccc(F)c1` [Compound 35, (S)-(4-(4-(1H-pyrazol-3-yl)pyrimidin-2-yl)piperazin-1-yl)(5-(3-fluorophenyl)-4,5-dihydro-1H-pyrazol-1-yl)methanone], for which, under setting [1], the pEC50 is 7.00 to 10.00.
Take `Cc1nnc(-c2nc(N3CCN(C(=O)N4N=CC[C@H]4c4cncc(F)c4)CC3)ccc2F)s1` [Compound 173, (S)-(4-(5-fluoro-6-(5-methyl-1,3,4-thiadiazol-2-yl)pyridin-2-yl)piperazin-1-yl)(5-(5-fluoropyridin-3-yl)-4,5-dihydro-1H-pyrazol-1-yl)methanone]: under setting [2], the pEC50 is 7.00 to 10.00.
With `NC(=O)Cn1cc(-c2nc(N3CCN(C(=O)N4N=CC[C@H]4c4cc(F)cc(F)c4)CC3)ncc2F)cn1` [Compound 53, (S)-2-(4-(2-(4-(5-(3,5-difluorophenyl)-4,5-dihydro-1H-pyrazole-1-carbonyl)piperazin-1-yl)-5-fluoropyrimidin-4-yl)-1H-pyrazol-1-yl)acetamide], the pEC50 under setting [1] is 7.00 to 10.00.
Regarding `Cc1nn(CC(N)=O)cc1-c1nc(N2CCN(C(=O)N3N=CC[C@H]3c3cc(F)cc(C#N)c3)CC2)ncc1F` [Compound 82], the negative-log EC50 (pEC50) under setting [1] is 7.00 to 10.00.

What is called pEC50 is the EC50 on a negative log10 scale, so that one unit is a factor of ten.
